US20130210817A1, “METHODS OF CONTROLLING NEONICOTINOID RESISTANT APHIDS” (SYNGENTA CROP PROTECTION LLC, priority 2010, published 2013)

How the values were obtained:
[1] = tested on: neonicotinoid insecticide resistant aphid strain; type: in vivo; settings: mixed age aphids on chinese cabbage leaf discs, Potter Tower spray, mortality 72 hours after treatment; resistant strain from peach orchard, Avignon region, 2009
Method: (§1) The following bioassay methodology was utilized to generate the data included in the table:
(§2) 5 cm leaf discs were taken from fully expanded chinese cabbage leaves and placed with the underside facing upwards onto water agar in 5 cm Petri dishes. The leaf discs are infested with between 30 and 40 mixed age aphids 24 hours prior to insecticide treatment. The leaf surface is sprayed with the appropriate test solutions in a Burkhard Potter Tower at an approximate water volume of 450 l/ha. Test containers are stored at 21 °C, 60% RH and 16:8 light/dark. Aphids were assessed for mortality 72 hours after treatment.

[2] = tested on: neonicotinoid insecticide susceptible strain 4106A; type: in vivo; settings: mixed age aphids on chinese cabbage leaf discs, Potter Tower spray, mortality 72 hours after treatment; susceptible strain 4106A (Rothamsted Research)
Method: as §1, §2

Row | SMILES | LC50 with 95% confidence limit (ppm) resistant strain [1] | LC50 with 95% confidence limit (ppm) susceptible strain [2]
1 | C/C(=N\C#N)N(C)Cc1ccc(Cl)nc1 [acetamiprid] | 49.3 (35.2-72.0) ppm | 0.55 (0.51-0.59) ppm
2 | CN/C(=N\[N+](=O)[O-])NCc1cnc(Cl)s1 [clothianidin] | 904 (478-3616) ppm | 0.33 (0.28-0.38) ppm
3 | CN/C(=N/CC1CCOC1)N[N+](=O)[O-] (centres unmarked) [dinotefuran] | 538 (435-696) ppm | 9.95 (8.21-12.5) ppm
4 | CCN(Cc1ccc(Cl)nc1)/C(=C/[N+](=O)[O-])NC [nitenpyram] | 237 (93.7-3566) ppm | 1.26 (1.03-1.61) ppm
5 | CC(=O)N1C(=O)N(NCc2cccnc2)Cc2cc(C(F)(C(F)(F)F)C(F)(F)F)ccc21 [pyrifluquinazon, 1-acetyl-1,2,3,4-tetrahydro-3-[(3-pyridylmethyl)amino]-6-[1,2,2,2-tetrafluoro-1-(trifluoromethyl)ethyl]quinazolin-2-one] | 0.09 (0.06-0.13) ppm | 0.17 (0.13-0.22) ppm
6 | N#C/N=C1\SCCN1Cc1ccc(Cl)nc1 [thiacloprid] | >1000 ppm | 0.38 (0.34-0.42) ppm
7 | CN1COCN(Cc2cnc(Cl)s2)/C1=N\[N+](=O)[O-] [thiamethoxam] | 148 (128-172) ppm | 0.35 (0.3-0.41) ppm
